Measurements published in article PMC10688034 (ACS Omega, 2023).

Columns and labels:
SARS-CoV-2 [1] = assay type: cell-based
SARS-CoV-2 [2] = assay type: cell-based; details: Calu-3, independently of the time of administration
Calu-3 cells = details: MTT
[3] = cited from earlier work
in vitro = details: African green monkey
Vero E6 cells = details: MTT, within the concentration range tested (1-80 μM)

Structure (SMILES) | LR (reduction of viral load) (SARS-CoV-2 [1]) | effect on viral replication (in words) (SARS-CoV-2 [2]) | cytotoxicity (in words) (Calu-3 cells; concentration up to 20 μM) | cell viability at the higher concentrations tested (in words) (Calu-3 cells; concentrations above 20 μM) | decomposition in cell culture medium after 6 h [3] | IC50 (in vitro) | cytotoxicity (in words) (Vero E6 cells)
C[C@H]1[C@@H](O)O[C@@H]2O[C@@]3(C)CC[C@H]4[C@H](C)CC[C@@H]1[C@@]24OO3 [DHA, dihydroartemisinin] | < 1 log | slightly interfere with viral replication | noncytotoxic | slightly altering cell viability | up to 70% | 21.6 µM | 
C[C@H](CCC(=O)O)[C@H]1CC[C@H]2[C@@H]3[C@@H](O)C[C@@H]4C[C@H](O)CC[C@]4(C)[C@H]3CC[C@]12C [UDCA, ursodeoxycholic acid] | < 1 log |  |  |  |  |  | noncytotoxic
